Source: patent US20090170838A1, “Bicycloheteroaryl compounds as P2X7 modulators and uses thereof” (Renovis, Inc., priority 2005, published 2009)

Tests used:
[1] = molecular target: T1, P2X7 receptor (Homo sapiens, UniProt Q99572); assay: IL-1β release assay (BzATP-stimulated, LPS/IFN-γ differentiated THP-1 cells, ELISA); format: cell-based; conditions: for inhibition at 0.3 µM: at 0.3 μM (plus symbols); for inhibition at 0.1 µM: at 0.1 μM (asterisk symbols)
T1 construct: host or cells: THP-1 cells differentiated with LPS and IFN-γ
T1 sequence (Q99572 1-595): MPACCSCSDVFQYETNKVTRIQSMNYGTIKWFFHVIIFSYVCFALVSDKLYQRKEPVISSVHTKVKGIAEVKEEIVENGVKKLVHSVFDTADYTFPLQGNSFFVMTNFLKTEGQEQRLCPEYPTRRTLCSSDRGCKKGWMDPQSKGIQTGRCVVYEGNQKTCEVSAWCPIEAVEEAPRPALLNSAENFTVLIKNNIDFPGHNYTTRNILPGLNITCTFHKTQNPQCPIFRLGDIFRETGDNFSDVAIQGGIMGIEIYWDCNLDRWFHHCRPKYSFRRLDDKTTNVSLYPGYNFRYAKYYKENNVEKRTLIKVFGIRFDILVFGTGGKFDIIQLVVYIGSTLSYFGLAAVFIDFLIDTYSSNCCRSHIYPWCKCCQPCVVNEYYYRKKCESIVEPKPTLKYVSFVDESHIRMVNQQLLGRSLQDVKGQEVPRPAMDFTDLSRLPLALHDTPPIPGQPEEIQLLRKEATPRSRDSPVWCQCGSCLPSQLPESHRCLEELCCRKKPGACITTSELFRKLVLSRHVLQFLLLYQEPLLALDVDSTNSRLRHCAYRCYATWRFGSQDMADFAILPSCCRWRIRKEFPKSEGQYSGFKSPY
Outline: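 THP-1 cells were differentiated 16 h with LPS and IFN-γ (100 ng/mL each), then primed 2 h with fresh LPS. Compound pretreatment lasted 30 min, followed by 250 uM BzATP for 45 min. Supernatant IL-1β was measured by ELISA, and percent inhibition was calculated from background-adjusted levels.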

[2] = molecular target: T1, P2X7 receptor; assay: Pore formation (Yo-Pro 1 uptake, BzATP-stimulated differentiated THP-1 cells); format: cell-based; conditions: for inhibition at 0.3 µM: at 0.3 μM (plus symbols); for inhibition at 0.1 µM: at 0.1 μM (asterisk symbols)
Description: THP-1 cells (ATCC Cat # 285-IF-100) are plated in 96 well plates at a concentration of 200,000 cells per well and allowed to differentiate in RPMI-1640 media (ATCC Cat # 30-2001) containing 10% FBS, 100 IU/mL penicillin, 100 ug/mL streptomycin, 100 ng/mL LPS and 100 ng/mL IFN-γ for 16 hours. Following differentiation, the cells are pretreated with the compound of interest at the appropriate concentration for 30 minutes in RPMI-1640 media containing 100 IU/mL penicillin, 100 ug/mL streptomycin. The pretreatment media is then replaced with assay buffer (20 mM HEPES, 10 mM D-glucose, 118 mM NMDG, 5 mM KCl, 0.4 mM CaCl2) containing 5 uM Yo-Pro 1 (Molecular Probes Cat # Y3603) and the compound of interest at the appropriate concentration and the cells are incubated for an additional 10 minutes. 2′,3′-O-(4-benzoylbenzoyl)-adenosine 5′-triphosphate (Sigma Aldrich Cat# B6396) is then added to a final concentration of 40 uM and fluoroscence readings measured at 491/509 excitation/emission every minute for 50 minutes using a Tecan Safire plate reader. During this time temperature is maintained at of 37° C. Background adjusted fluorescence levels between drug treated and non-treated cells are used to calculate the percent inhibition.

Structure (SMILES)	inhibition at 0.3 µM [1]	inhibition at 0.3 µM [2]	inhibition at 0.1 µM [1]	inhibition at 0.1 µM [2]
O=C(CC12CC3CC(CC(C3)C1)C2)Nc1cccc2c1CCN(Cc1ccc(C(F)(F)F)cc1)C2=O [Compound 727]	≥ 75%	≥ 75%		
O=C(CC12CC3CC(CC(C3)C1)C2)Nc1cccc2c(=O)n(CC3CCCO3)ccc12 (stereo not shown) [Compound 709]	≥ 75%	≥ 75%		
O=C(CC12CC3CC(CC(C3)C1)C2)Nc1cccc2c(=O)n(CC3CCOCC3)ccc12 [Compound 717]	≥ 75%	≥ 75%		
O=C(CC12CC3CC(CC(C3)C1)C2)Nc1cccc2c(=O)[nH]ccc12 [Compound 804]		≥ 75%	≥ 75%	
O=C(CC12CC3CC(CC(C3)C1)C2)Nc1cccc2c(=O)n(CCN3CCOCC3)ccc12 [Compound 780]			≥ 75%	≥ 75%
CC12CC3CC(C)(C1)CC(CC(=O)Nc1cccc4c(=O)n(Cc5ccccc5)ccc14)(C3)C2 [Compound 751]			50 to 75%	50 to 75%
O=C(CC12CC3CC(CC(C3)C1)C2)Nc1cccc2c(=O)n(Cc3ccc4c(c3)OCCO4)ccc12 [Compound 707]	≥ 75%	≥ 75%		
O=C(CC12CC3CC(CC(C3)C1)C2)Nc1cccc2c1CCN(Cc1ccccc1)C2=O [Compound 702, 2-Adamantan-1-yl-N-(2-benzyl-1-oxo-1,2,3,4-tetrahydro-isoquinolin-5-yl)-acetamide]	≥ 75%	≥ 75%		
